From ChEMBL document CHEMBL4033775, “Natural-Products-Inspired Use of the gem-Dimethyl Group in Medicinal Chemistry” (J Med Chem, 2018)
pEC50, pIC50, pKi: −log10 of the molar value. Converted amounts (≈) assume the structure as drawn. Blank lines part the entries; values can stand above or below the compound they belong to.

Experiments:
Staphylococcus aureus = assay: Antibacterial activity against methicillin-resistant Staphylococcus aureus; type: functional
Enterococcus faecalis = assay: Antibacterial activity against Enterococcus faecalis; type: functional
Rattus norvegicus [1] = assay: Anti-hypertensive activity in conscious spontaneously hypertensive Okamoto rat assessed as reduction in systolic blood pressure at 0.1 mg/kg, po measured up to 6 hrs post dose relative to control; type: functional; parameters: scale not given: the % may be the effect or the level left
Rattus norvegicus [2] = assay: Anti-hypertensive activity in conscious spontaneously hypertensive Okamoto rat assessed as reduction in systolic blood pressure at 0.3 mg/kg, po measured up to 6 hrs post dose relative to control; type: functional; parameters: scale not given: the % may be the effect or the level left
Prothrombin [3] = target: Prothrombin (Homo sapiens, UniProt P00734); assay: Inhibition of human plasma thrombin using chromogenix AB as substrate after 30 secs by UV-spectrophotometry
Prothrombin [4] = target: Prothrombin (Bos taurus, UniProt P00735); assay: Inhibition of bovine plasma thrombin using chromogenix AB as substrate after 30 secs by UV-spectrophotometry
[5] = target: Integrin alpha-IIb/beta-3 (Homo sapiens, UniProt P05106+P08514); assay: Inhibition of human GP2b/3a interaction with human fibrinogen after 3 hrs by ELISA; type: protein-complex assay
[6] = Tmax in Sprague-Dawley rat at 10 mg/kg, po measured up to 120 mins post dose by HPLC analysis; type: ADME, organism-based; conditions: in vivo
[7] = Half life in Hartley guinea pig at 1 mg/kg, iv measured up to 180 mins post dose by HPLC analysis; type: ADME, organism-based, Cavia porcellus; conditions: in vivo
[8] = Cmax in Sprague-Dawley rat at 10 mg/kg, po measured up to 120 mins post dose by HPLC analysis; type: ADME, organism-based; parameters: dose 10 mg/kg, route oral; conditions: in vivo
Rattus norvegicus [9] = assay: Anti-hypertensive activity in conscious spontaneously hypertensive Okamoto rat assessed as reduction in systolic blood pressure at 10 mg/kg, po measured up to 6 hrs post dose relative to control; type: functional; parameters: scale not given: the % may be the effect or the level left
Rattus norvegicus [10] = assay: Anti-hypertensive activity in conscious spontaneously hypertensive Okamoto rat assessed as reduction in systolic blood pressure at 3 mg/kg, po measured up to 6 hrs post dose relative to control; type: functional; parameters: scale not given: the % may be the effect or the level left
Interstitial collagenase = Interstitial collagenase (Homo sapiens, UniProt P03956); assay: Inhibition of human interstitial recombinant N-terminal MMP1 expressed in Escherichia coli BL21(DE3) using Mca-Pro-Leu-Gly-Leu-Dpa-Ala-Arg-NH2 as substrate after 20 to 30 mins by spectrofluorimetric analysis
Matrilysin = target: T1, Matrilysin (Homo sapiens, UniProt P09237); assay: Inhibition of MMP7 (unknown origin) expressed in Escherichia coli BL21(DE3) using Mca-Pro-Leu-Gly-Leu-Dpa-Ala-Arg-NH2 as substrate after 20 to 30 mins by spectrofluorimetric analysis
T1 sequence (P09237 whole entry): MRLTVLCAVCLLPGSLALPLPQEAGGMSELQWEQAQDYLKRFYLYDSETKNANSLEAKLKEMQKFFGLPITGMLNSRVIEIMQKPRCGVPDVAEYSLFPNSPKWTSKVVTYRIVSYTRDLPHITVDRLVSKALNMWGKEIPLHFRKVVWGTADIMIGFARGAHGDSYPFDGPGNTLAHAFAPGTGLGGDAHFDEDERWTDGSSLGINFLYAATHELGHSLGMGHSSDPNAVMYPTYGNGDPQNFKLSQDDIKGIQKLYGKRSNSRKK

Collagenase 3 = Collagenase 3 (Homo sapiens, UniProt P45452); assay: Inhibition of MMP13 (unknown origin) expressed in Escherichia coli BL21(DE3) using Mca-Pro-Leu-Gly-Leu-Dpa-Ala-Arg-NH2 as substrate after 20 to 30 mins by spectrofluorimetric analysis
[11] = target: Retinoic acid receptor RXR-gamma (Homo sapiens, UniProt P48443); assay: Agonist activity at RXRgamma (unknown origin)
[12] = target: Retinoic acid receptor RXR-beta (Homo sapiens, UniProt P28702); assay: Agonist activity at RXRbeta (unknown origin)
[13] = target: Retinoic acid receptor beta (Homo sapiens, UniProt P10826); assay: Agonist activity at RARbeta (unknown origin)
[14] = target: Retinoic acid receptor alpha (Homo sapiens, UniProt P10276); assay: Agonist activity at RARaplha (unknown origin)
[15] = target: Retinoic acid receptor gamma (Homo sapiens, UniProt P13631); assay: Agonist activity at RARgamma (unknown origin)
Clostridioides difficile = assay: Antibacterial activity against Clostridium difficile; type: functional
1A9 = assay: Cytotoxicity against human 1A9 cells; type: functional, cell-based
[16] = system: Human immunodeficiency virus; assay: Antiviral activity against Human immunodeficiency virus assessed as reduction in maturation; type: functional; conditions: Human immunodeficiency virus 1
Homo sapiens = species: Homo sapiens; assay: Antagonist activity at nAChR (unknown origin) relative to (+/-)-mecamylamine
[17] = target: Sodium/hydrogen exchanger 1 (Homo sapiens, UniProt P19634); assay: Inhibition of human NHE1 by cell based assay
[18] = Clearance in po dosed rat; type: ADME, organism-based; conditions: in vivo
[19] = Half life in po dosed rat; type: ADME, organism-based; conditions: in vivo
[20] = system: Human immunodeficiency virus 1; assay: Antiviral activity against HIV1; type: functional
[21] = target: Insulin-like growth factor 1 receptor (Homo sapiens, UniProt P08069); assay: Antagonist activity at human GST-tagged IGF-1R (950 to […] residues) expressed in baculovirus after 5 mins in presence of [gamma33P]-ATP by top count method
[22] = system: Trypanosoma brucei brucei; assay: Antitrypanosomal activity against Trypanosoma brucei brucei after 72 hrs by resazurin-based fluorescence assay; type: functional

Sequence of Retinoic acid receptor RXR-beta (P28702 whole entry): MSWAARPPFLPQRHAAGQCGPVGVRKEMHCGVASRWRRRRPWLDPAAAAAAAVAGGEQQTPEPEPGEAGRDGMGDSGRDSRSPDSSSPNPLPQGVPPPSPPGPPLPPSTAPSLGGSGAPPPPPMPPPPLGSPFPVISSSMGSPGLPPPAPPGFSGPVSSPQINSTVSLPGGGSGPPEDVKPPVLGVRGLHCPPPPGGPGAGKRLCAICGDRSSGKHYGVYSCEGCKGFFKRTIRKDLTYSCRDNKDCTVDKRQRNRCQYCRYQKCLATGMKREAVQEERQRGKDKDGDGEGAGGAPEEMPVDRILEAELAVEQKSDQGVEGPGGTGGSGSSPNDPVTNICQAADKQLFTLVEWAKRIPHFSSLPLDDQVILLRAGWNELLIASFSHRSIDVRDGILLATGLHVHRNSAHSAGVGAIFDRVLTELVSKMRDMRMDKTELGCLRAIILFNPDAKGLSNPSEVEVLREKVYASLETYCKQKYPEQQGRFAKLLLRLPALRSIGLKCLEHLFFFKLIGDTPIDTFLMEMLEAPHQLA
Sequence of Integrin alpha-IIb/beta-3 (P05106 27-788 limits assumed): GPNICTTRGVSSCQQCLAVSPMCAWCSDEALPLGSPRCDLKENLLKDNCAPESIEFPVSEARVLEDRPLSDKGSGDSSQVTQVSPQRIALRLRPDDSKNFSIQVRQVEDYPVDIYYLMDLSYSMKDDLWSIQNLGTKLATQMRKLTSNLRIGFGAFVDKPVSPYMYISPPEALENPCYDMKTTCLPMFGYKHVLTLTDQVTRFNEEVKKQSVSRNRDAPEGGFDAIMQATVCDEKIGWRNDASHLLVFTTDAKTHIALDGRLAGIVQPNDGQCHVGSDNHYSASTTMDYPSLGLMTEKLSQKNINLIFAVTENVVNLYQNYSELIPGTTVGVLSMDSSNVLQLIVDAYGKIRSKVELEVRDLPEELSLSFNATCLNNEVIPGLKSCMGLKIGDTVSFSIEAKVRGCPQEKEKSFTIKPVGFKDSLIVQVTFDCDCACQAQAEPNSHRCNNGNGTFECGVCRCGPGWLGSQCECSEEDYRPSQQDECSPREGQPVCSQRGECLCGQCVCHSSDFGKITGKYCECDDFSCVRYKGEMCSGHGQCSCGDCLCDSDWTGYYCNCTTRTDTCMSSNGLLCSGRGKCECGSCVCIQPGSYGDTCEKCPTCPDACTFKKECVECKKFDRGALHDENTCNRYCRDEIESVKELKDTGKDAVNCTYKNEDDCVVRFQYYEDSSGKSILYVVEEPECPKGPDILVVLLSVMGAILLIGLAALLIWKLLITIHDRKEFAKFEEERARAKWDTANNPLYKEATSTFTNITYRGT
Sequence of Integrin alpha-IIb/beta-3 (P08514 32-887 limits assumed): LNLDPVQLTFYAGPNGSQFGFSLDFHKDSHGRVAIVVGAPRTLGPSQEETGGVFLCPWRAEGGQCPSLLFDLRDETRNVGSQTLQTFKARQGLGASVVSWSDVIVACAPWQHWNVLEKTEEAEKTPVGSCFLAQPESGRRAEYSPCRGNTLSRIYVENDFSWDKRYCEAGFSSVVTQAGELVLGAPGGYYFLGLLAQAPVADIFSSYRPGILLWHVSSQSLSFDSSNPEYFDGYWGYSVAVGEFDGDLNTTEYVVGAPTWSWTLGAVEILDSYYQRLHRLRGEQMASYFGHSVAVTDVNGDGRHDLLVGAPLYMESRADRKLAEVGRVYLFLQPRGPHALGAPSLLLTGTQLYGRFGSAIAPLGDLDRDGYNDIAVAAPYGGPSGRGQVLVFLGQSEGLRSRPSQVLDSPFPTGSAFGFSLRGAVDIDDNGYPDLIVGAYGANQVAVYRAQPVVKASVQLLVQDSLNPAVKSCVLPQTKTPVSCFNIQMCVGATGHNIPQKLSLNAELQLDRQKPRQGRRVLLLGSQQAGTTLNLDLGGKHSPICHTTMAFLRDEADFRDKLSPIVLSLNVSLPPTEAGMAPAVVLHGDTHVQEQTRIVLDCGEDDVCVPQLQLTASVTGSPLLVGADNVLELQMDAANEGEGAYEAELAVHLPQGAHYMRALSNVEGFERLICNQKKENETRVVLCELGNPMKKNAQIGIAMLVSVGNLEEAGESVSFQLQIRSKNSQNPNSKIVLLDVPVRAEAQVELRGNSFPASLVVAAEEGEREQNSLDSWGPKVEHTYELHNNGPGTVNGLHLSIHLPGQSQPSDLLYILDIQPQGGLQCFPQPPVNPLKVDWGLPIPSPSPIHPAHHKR
Sequence of Integrin alpha-IIb/beta-3 (P08514 891-1039 limits assumed): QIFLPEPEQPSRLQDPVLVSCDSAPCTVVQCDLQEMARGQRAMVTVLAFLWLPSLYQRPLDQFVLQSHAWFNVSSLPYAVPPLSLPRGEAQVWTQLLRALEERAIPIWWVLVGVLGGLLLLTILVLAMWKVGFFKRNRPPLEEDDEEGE
Sequence of Retinoic acid receptor alpha (P10276 whole entry): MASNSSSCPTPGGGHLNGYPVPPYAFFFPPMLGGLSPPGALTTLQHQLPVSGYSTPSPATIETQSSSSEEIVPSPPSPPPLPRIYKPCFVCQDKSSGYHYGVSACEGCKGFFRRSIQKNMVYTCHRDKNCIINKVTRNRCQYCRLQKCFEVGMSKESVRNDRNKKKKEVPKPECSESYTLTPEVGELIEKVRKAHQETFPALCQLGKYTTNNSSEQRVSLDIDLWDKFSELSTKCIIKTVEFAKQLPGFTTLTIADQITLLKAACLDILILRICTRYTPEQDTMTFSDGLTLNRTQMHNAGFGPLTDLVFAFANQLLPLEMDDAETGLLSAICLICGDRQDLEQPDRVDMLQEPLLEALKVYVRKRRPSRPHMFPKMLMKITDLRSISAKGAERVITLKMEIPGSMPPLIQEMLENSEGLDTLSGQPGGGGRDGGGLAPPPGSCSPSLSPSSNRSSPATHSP
Sequence of Sodium/hydrogen exchanger 1 (P19634 whole entry): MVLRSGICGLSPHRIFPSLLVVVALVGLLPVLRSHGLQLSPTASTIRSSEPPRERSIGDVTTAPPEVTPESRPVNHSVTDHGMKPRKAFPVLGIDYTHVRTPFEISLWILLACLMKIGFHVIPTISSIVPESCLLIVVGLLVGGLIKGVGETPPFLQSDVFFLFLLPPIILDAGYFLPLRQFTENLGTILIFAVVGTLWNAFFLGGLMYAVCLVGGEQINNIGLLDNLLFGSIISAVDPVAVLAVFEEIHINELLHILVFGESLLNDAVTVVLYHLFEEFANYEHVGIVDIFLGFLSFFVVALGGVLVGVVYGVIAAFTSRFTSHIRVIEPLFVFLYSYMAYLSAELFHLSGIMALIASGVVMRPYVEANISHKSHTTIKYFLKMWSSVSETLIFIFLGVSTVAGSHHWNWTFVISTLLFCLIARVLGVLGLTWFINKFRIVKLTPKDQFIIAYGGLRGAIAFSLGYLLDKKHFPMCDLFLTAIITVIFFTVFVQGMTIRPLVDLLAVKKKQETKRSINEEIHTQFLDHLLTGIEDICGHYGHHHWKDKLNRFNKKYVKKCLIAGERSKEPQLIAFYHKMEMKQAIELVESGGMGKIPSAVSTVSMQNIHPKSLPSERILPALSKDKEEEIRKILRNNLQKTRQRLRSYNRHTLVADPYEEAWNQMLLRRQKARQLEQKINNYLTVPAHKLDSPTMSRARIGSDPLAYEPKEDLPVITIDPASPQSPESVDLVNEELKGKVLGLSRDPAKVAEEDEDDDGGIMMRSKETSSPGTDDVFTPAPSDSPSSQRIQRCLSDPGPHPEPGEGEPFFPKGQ
Sequence of Retinoic acid receptor beta (P10826 whole entry): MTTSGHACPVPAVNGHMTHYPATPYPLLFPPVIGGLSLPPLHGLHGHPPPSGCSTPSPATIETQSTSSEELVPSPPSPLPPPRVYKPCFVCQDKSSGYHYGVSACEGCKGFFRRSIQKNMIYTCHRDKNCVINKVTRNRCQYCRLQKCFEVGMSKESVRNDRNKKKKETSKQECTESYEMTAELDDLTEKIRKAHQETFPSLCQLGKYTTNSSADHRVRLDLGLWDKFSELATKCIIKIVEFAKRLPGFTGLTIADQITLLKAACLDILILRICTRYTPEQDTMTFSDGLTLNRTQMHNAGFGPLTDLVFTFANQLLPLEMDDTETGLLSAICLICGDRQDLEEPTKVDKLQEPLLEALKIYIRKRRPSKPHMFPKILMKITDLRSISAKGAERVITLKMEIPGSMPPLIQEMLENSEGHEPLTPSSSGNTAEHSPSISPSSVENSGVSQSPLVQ
Sequence of Interstitial collagenase (P03956 whole entry): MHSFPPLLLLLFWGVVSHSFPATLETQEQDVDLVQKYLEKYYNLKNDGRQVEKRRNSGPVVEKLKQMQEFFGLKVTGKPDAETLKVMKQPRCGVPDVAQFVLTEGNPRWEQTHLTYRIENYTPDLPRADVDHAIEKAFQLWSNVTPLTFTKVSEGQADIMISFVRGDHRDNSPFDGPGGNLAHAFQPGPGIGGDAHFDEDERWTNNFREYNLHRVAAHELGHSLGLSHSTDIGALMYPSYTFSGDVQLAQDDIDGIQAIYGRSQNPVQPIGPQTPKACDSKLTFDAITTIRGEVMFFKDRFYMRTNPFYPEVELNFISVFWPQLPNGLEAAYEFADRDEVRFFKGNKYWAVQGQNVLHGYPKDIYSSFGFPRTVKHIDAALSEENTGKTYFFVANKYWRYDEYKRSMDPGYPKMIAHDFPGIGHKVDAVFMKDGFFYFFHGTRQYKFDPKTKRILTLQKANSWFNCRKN
Sequence of Retinoic acid receptor RXR-gamma (P48443 whole entry): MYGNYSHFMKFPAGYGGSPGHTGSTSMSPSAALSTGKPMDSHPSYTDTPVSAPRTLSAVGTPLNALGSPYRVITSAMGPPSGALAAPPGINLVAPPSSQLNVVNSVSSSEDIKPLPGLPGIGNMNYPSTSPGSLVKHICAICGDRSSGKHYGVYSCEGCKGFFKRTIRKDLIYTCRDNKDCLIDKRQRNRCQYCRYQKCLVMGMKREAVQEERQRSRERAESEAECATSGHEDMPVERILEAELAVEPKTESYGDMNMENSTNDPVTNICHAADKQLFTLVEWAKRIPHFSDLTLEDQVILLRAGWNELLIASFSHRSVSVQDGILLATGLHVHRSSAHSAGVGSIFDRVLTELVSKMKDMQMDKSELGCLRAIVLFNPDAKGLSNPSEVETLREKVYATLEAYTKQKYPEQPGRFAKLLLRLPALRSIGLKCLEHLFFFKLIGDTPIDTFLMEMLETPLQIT

Compound: Cc1cc(O)cc(O)c1-c1cc(O)cc2cc3c(c(O)c12)C(=O)c1c(O)cc(O)c(Cl)c1C3(C)C
MIC (Staphylococcus aureus): 3.1 mg/L (≈ 6.29 µM) | MIC (Enterococcus faecalis): 0.8 mg/L (≈ 1.62 µM)

Compound: CC1(C)Oc2ccc(C#N)cc2C(N2CCCC2=O)C1O (stereo in doubt; 110) [CROMAKALIM]
Activity (Rattus norvegicus [1]): 31% | Activity (Rattus norvegicus [2]): 47%

pKi (Prothrombin [3]): 7.40 | pKi (Prothrombin [4]): 7.30
Compound: CC1CNc2c(cccc2S(=O)(=O)N[C@@H](CCCNC(=N)N)C(=O)N2CCC(CCO)CC2)C1 (mixture of isomers)

pIC50 [5]: 8.64 | Tmax [6]: 0.5 h | half-life [7]: 1.83 h | Cmax [8]: 1.21 µg/mL
Compound: CCOC(=O)CC1CCN(C(=O)CC(CC)NC(=O)c2ccc(C(=N)N3CCSC3)cc2F)CC1 (racemic)

Compound: CC1Oc2ccc([N+](=O)[O-])cc2[C@@H](N2CCCC2=O)[C@@H]1O (some centres undefined)
Activity (Rattus norvegicus [9]): 34%

Compound: O=C1CCCN1[C@@H]1c2cc([N+](=O)[O-])ccc2OC[C@H]1O
Activity (Rattus norvegicus [9]): 5%

Compound: CC1(C)Oc2ccc(C#N)cc2C(N2CCCC2=O)C1O (single isomer, unassigned; (+)) [CROMAKALIM]
Activity (Rattus norvegicus [10]): 14%

pIC50 (Interstitial collagenase): 7.19 | pIC50 (Matrilysin): 5.96 | pIC50 (Collagenase 3): 8.72
Compound: COc1ccc(S(=O)(=O)N2CCCSC[C@@H]2C(=O)NO)cc1

pEC50 [11]: 6.22 | pEC50 [12]: 6.11 | pEC50 [13]: < 5.00 | pEC50 [14]: < 5.00 | pEC50 [15]: < 5.00
Compound: C=C(c1ccc(C(=O)O)cc1)c1cc2c(cc1C)C(C)(C)CCC2

Compound: CCc1c(Cl)c(O)c(Cl)c(O)c1C(=O)O[C@H]1[C@H](O)[C@H](OC)[C@H](OC/C2=C\C=C\C[C@H](O)/C(C)=C/[C@H](CC)[C@@H](O[C@@H]3OC(C)(C)[C@@H](OC(=O)C(C)C)[C@H](O)[C@@H]3O)/C(C)=C/C(C)=C/C[C@H]([C@@H](C)O)OC2=O)O[C@@H]1C
MIC90 (Clostridioides difficile): 0.125 to 0.25 mg/L (≈ 0.118 to 0.236 µM)

Compound: CC(=O)O[C@@]12CO[C@@H]1C[C@H](O)[C@@]1(C)C(=O)[C@H](O)C3=C(C)[C@@H](OC(=O)[C@H](O)[C@@H](NC(=O)OC(C)(C)C)c4ccccc4)C[C@@](O)([C@@H](OC(=O)c4ccccc4)[C@H]21)C3(C)C [DOCETAXEL ANHYDROUS]
pIC50 (1A9): 8.45

Compound: CC1=C[C@@H]2[C@@H]([C@@H]3[C@H]1\C=C/C=C/C=C\[C@@H](O)[C@H](C)[C@H](O)C/C=C(C)/C=C/C(=O)O[C@H]3c1ccc(O)cc1)C(C)(C)C[C@@]2(C)O
MIC (Enterococcus faecalis): 0.3 mg/L (≈ 0.51 µM)

Compound: C=C(C)[C@@H]1CC[C@]2(C(=O)O)CC[C@]3(C)[C@H](CC[C@@H]4[C@@]5(C)CC[C@H](OC(=O)CC(C)(C)C(=O)O)C(C)(C)[C@@H]5CC[C@]43C)[C@@H]12 [BEVIRIMAT]
pEC50 [16]: 7.99

Compound: CNC1C[C@H]2CC[C@H]1C2 (mixture of isomers)
fold change (FC) (Homo sapiens): > 40

pIC50 [17]: 8.00 | CL/F [18]: 4.44 L/h/kg | half-life [19]: 3 h
Compound: CC1(C)[C@H](C(=O)N=C(N)N)[C@H]1c1cccc2c1CCO2

fold change (FC) (Homo sapiens): 3
Compound: CN[C@@]1(C)[C@H]2CC[C@@H](C2)C1(C)C

Compound: C=C(C)[C@@H]1CC[C@]2(C(=O)O)CC[C@]3(C)[C@H](CC[C@@H]4[C@@]5(C)CC[C@H](O)C(C)(C)[C@@H]5CC[C@]43C)[C@@H]12 [BETULINIC ACID]
pEC50 [20]: 5.85

pIC50 [21]: 8.00
Compound: CC(C)(Oc1cccc(-c2cn([C@H]3C[C@@H](CN4CCC4)C3)c3ncnc(N)c23)c1)[C@@H]1CCCO1

Compound: CC1(C)OB(O)c2cc(NC(=O)c3ccc(F)cc3C(F)(F)F)ccc21 [ACOZIBOROLE]
pIC50 [22]: 6.25

CL/F [18]: 7.2 L/h/kg
Compound: N=C(N)NC(=O)[C@H]1C[C@@H]1c1cccc2c1CCO2
